# Measured values: patent publication US20130136778A1, “PTEROSTILBENE (PTER) FOR USE IN THE PREVENTION AND/OR TREATMENT OF SKIN DISEASES, DAMAGES OR INJURIES” (GREEN MOLECULAR, S.L., priority 2009, published 2013)
# Assays:
# Format in all cases: in vivo
# SKH-1 mice [1] = test: Anatomopathological study of the skin after chronic exposure to UV-B; details: chronic UV-B irradiation
# Procedure: Histochemical techniques were used to study the skin tissues of the different procedures, at a microscopic level.
# The tissues were fixed in 4% formaldehyde in PBS over 24 h at 22° C. After the tissues were fixed, they had to be dehydrated in large amounts of ethanol and placed in a hydrophobic and xylene mixture to allow the paraffin to penetrate the tissues to provide sufficient consistency for slicing them thinly in a microtome.
# The samples in paraffin were processed with the microtome obtaining slices of about 5-10 μm. The samples were spread over a drop of gelatin at 37° C. and were collected in gelatinized slides.
# The protocol used for staining the samples was: • 1. Incubation with Mayer's Hematoxylin for 10-15 minutes. • 2. Wash under running water until bluish. • 3. Incubate with Eosin (1%) for 2-4 minutes. • 4. Eliminate the remaining eosin in ethanol 70° • 5. Dehydration. • 6. Rinse with xylol for 3 minutes. • 7. Let the trays dry out on the stove at 37°.
# In relation to the histopathological exam of the tumors induced by chronic irradiation to UV in the SKH1 mice, it was confirmed that the treatment with UV-B produced a strong acanthosis due primarily to the inflammatory process; this gave way to the first signs of tumors, mostly of carcinoma type and not melanoma.
# Both the reference compounds and the ones subject of this study (10 μmoles/mouse of polyphenols, or 200 μl of each photoprotector) were applied to the back of the mice for 20 minutes prior to their exposure to UV-B. Medium of groups of 20 mice. Every parameter was measured according to the degree of seriousness (+) light-(+++) serious.
# SKH-1 mice [2] = test: Thickness of the epidermis after acute UV-B exposure of 360 mJ/cm2
# Procedure: UVB Acute exposure protocols were used: Mice underwent a single exposure of 360 mJ/cm2. The study was conducted at 24 hours after exposure. This protocol was used to evaluate the photoprotective effect of the compounds studied. With the same acute-phase protocol mice from all groups were irradiated. Subsequently mice remained in the animal storage area for a week to see the evolution of the inflammatory response and edema. • 1. Edema formation: skinfold thickness was determined with a caliper 24 hours after the first exposure. • 2. Study of the thickness of the epidermis after exposure to acute irradiation (360 mj/cm^2 24 h hours and 7 days after irradiation). • 3. Histological studies: measuring, in the pictures obtained from histological sections, the thickness of the epidermis. For studies of acute exposure skin samples were taken from the back of the mouse. These samples were fixed with 4% paraformaldehyde (24 hours) and embedded in paraffin. Following cutting the samples were stained with hematoxylin and eosin. The two protocols of UV-B exposure used were: • Intense exposure after a single exposure of 360 mJ/cm^2. The study was carried out 24 hours after the exposure. This protocol was used to assess the photoprotective effects of the compounds studied. • Intense exposure after a single exposure of 360 mJ/cm^2. The study was carried out 1 week after the exposure. The mice were kept in the shed for a week to observe the evolution of the inflammatory and edematous response. At 24 hours or 1 week after the administration of the different treatments the mice were sacrificed and their skin fixed with 4% PFA. To measure the thickness of the epidermis to evaluate possible hyperplasia, a computer program was used, Image J, calibrated with the assistance of a Neubauer camera which allowed the measuring of the epidermis. Results obtained were statistically analyzed by ANOVA and contrasted by the Tukey test and grouped according to the significant differences. […] Therefore PTER alone could be used efficiently in the prevention of skin diseases, injuries or damages induced by ultraviolet B radiation. The evaluation of skin thickness was carried out by using computer software (IMAGE J). Results obtained by ANOVA were contrasted by the Tukey test and grouped according to the significant differences. […] Therefore PTER separately could be used efficiently in the prevention of skin diseases, damages or injuries induced by ultraviolet B radiation.
# BALB/c mice = test: Contact hypersensitivity induced by oxazolone (ear edema); details: FIG. 22; 1 μmol polyphenols, 20 mg diprosone; applied after oxazolone
# Procedure: The edema was calculated as the difference between the thickness that was produced in the ears, before the outcomes of the reaction, and their thickness 24 hours later, and it was measured with a vernier caliper.
# The change was expressed as the relative increase in relation to day 0.
# The application of oxazolone after sensitization to the same substance produces a reaction of hypersensitivity by contact, which appears as an eczematous reaction, with infiltration of lymphocytes and macrophages, with edema of the epidermis.
# The BALB/c mice are sensitized on day 0 through the application, on the shaved abdomen, of 100 μL of oxazolone at 1.5% in acetone (w/v). Prior to the induction for hypersensitization, the thickness of the ear was measured with the help of a vernier caliper (Mitutoyo micrometer). The reaction was caused on day 7 by applying 20 μL of 2.5% oxazolone in ethanol (10 μL to each side of the right ear).
# As a control measure the left ear was used, to which 20 μL of ethanol was applied. And a standard treatment, Diprosone® cream was used: (Schering Plough B. V., Utrecht, The Netherlands), that contains 0.5 mg de betamethasone/g. […]
smiles,measurement,setting,value
"COc1cc(/C=C/c2ccc(O)cc2)cc(OC)c1 [PTER, 3,5-dimethoxy-4′-hydroxy-trans-resveratrol]","anti-inflammatory and anti-tumor formation effect, histopathological exam",SKH-1 mice [1],the compound with greatest benefits
same,"thickness of the epidermis 24 hours after irradiation, applied after UVB",SKH-1 mice [2]; FIG. 2,"more efficient in the treatment of skin diseases, injuries or damages caused by radiation, when applied after the exposure to UVB, than the commercial creams (Vichy, Heliocare and Isdin)"
same,"thickness of the epidermis 24 hours after irradiation, applied before UVB",SKH-1 mice [2]; FIG. 2,"more efficient as photoprotector, when applied before the exposure to UVB, than the commercial creams (Vichy, Heliocare and Isdin)"
same,thickness of the epidermis 24 hours after irradiation (before or after application),"SKH-1 mice [2]; FIG. 2, versus group treated only with UV-B",produced better results than even commercial photoprotectors and Resveratrol
same,"thickness of the epidermis 1 week after irradiation, applied after UVB",SKH-1 mice [2]; FIG. 3,"more efficient in the treatment of skin diseases, injuries or damages caused by radiation, when applied after the exposure to UVB, than the commercial creams (Vichy, Heliocare and Isdin)"
same,"thickness of the epidermis 1 week after irradiation, applied before UVB",SKH-1 mice [2]; FIG. 3,"more efficient as photoprotector, when applied before the exposure to UVB, than the commercial creams (Vichy, Heliocare and Isdin)"
same,edema of the ear / inflammatory changes induced by oxazolone,BALB/c mice,could prevent inflammatory changes as a result of inflammation induced by oxazolone
